We go through one compound from patent US20110065632A1, “PHARMACEUTICAL COMPOSITIONS OF SOMATOSTATIN-DOPAMINE CONJUGATES” (priority 2008, published 2011).

Molecules are shown by their SMILES.

The target of one assay is hDA2. Nature of the assay: Dopamine-2 receptor radioligand binding assay. More on the design: species or system human. Particulars: [3H]spiperone.
The target of a further assay is T1, D2 (Homo sapiens, UniProt P14416).
T1 construct: expressed in transfected cells; host or cells: HEK-293, transient
T1 sequence (P14416 whole entry): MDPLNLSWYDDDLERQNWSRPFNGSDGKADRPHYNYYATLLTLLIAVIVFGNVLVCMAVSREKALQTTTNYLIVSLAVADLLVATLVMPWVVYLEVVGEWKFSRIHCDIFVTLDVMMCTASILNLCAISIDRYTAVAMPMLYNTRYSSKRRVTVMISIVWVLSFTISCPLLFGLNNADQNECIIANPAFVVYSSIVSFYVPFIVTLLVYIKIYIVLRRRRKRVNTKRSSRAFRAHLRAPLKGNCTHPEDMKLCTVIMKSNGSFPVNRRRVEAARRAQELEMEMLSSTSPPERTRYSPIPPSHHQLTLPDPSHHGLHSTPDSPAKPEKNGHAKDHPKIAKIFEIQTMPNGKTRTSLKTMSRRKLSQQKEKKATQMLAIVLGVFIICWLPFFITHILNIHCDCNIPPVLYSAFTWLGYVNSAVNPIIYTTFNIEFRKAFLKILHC
Nature of the assay: cAMP Responsive Element-Luciferase reporter gene assay, D2-monotransfected HEK-293 cells. The assay is classed as cell-based. The note with it: read-out: IC50 value of cAMP inhibition. The protocol: (§1) A cAMP Responsive Element-Luciferase reporter gene assay in HEK-293 cells was used in this assay, wherein said HEK-293 cells were transiently transfected with D2 and/or sst2 cDNA. […] In sst2-monotransfected cells, the IC50 value of cAMP inhibition of Example 1 was 0.04 nM.

For another assay, the target named is T2, hsst3 (Homo sapiens, UniProt P32745).
T2 construct: expressed in transfected cells
T2 sequence (P32745 whole entry): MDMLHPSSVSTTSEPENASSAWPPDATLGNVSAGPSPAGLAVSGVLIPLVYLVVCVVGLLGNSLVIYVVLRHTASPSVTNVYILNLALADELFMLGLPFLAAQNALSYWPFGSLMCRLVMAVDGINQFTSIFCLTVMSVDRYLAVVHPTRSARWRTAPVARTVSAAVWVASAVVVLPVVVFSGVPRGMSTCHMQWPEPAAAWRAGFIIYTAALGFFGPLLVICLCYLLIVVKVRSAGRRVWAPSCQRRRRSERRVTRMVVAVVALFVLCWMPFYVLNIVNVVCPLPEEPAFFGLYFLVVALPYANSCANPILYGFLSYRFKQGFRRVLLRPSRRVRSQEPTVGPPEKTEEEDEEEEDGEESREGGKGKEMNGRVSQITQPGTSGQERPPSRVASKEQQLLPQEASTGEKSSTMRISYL
As to the kind of experiment: Somatostatin receptor radioligand binding assay, hsst3. Summed up:
(§2)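 Membranes from CHO-K1 cells stably transfected with each human SSTR subtype, incubated 90 min at 25 °C with 0.05 nM [125I-Tyr11]SS-14 in 50 mM HEPES pH 7.4 with BSA, MgCl2 and protease inhibitors; filtration read-out. Nonspecific binding with 1000 nM SS-14; Ki values reported.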

A further assay concerns the target T3, sst2 (Homo sapiens, UniProt P30874).
T3 construct: expressed in transfected cells; host or cells: HEK-293, transient
As to the kind of experiment: cAMP Responsive Element-Luciferase reporter gene assay, sst2-monotransfected HEK-293 cells. The assay is classed as cell-based. Particulars: read-out: IC50 value of cAMP inhibition. As for the experimental part: as §1

A further assay concerns the target T4, sst2-D2 (Homo sapiens, UniProt P14416+P30874).
T4 construct: expressed in transfected cells; host or cells: HEK-293, transient co-transfection
Nature of the assay: cAMP Responsive Element-Luciferase reporter gene assay, sst2-D2 co-transfected HEK-293 cells. It is filed as cell-based. The note with it: read-out: IC50 value of cAMP inhibition. The protocol:
as §1
On the technique in general: Reporter assays use an easily measured gene product as a stand-in for the process of interest.

Another assay deals with T5, hUTII (Homo sapiens, UniProt Q9UKP6).
T5 sequence (Q9UKP6 1-389): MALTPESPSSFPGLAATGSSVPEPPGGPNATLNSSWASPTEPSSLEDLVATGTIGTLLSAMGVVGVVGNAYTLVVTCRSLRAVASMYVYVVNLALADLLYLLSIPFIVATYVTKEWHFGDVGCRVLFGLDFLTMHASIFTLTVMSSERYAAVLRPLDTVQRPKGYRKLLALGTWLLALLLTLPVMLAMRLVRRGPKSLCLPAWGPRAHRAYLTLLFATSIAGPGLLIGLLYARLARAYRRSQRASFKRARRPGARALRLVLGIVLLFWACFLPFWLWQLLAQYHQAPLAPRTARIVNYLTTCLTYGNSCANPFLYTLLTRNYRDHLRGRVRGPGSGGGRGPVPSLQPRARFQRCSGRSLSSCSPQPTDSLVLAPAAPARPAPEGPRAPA
Nature of the assay: hUTII inhibition constant. The assay is classed as binding. The note with it: read-out: hUTII Ki. As for the experimental part: Using the discussed assays, the inhibition constants (Ki) for the five human somatostatin receptors (hSSTR1-hSSTR5) and the dopamine-2 receptor (hUTII and hDA2) were measured for the exemplified somatostatin-dopamine conjugates, as follows: […]

The target of a further assay is T6, hsst2 (Homo sapiens, UniProt P30874).
T6 construct: expressed in transfected cells
T6 sequence (P30874 whole entry): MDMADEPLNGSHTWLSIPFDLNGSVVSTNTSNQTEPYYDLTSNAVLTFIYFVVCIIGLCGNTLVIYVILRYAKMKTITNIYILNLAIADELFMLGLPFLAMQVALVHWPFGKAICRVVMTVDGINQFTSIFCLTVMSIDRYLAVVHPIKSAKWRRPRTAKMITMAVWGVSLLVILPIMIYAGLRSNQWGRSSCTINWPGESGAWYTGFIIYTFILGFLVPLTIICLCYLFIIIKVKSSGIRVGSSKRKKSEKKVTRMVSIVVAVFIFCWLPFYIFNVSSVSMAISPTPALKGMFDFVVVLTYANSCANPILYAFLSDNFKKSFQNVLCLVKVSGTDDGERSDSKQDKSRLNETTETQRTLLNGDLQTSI
As to the kind of experiment: Somatostatin receptor radioligand binding assay, hsst2. Particulars: CHO-K1 membranes, [125I]MK-678; read-out: hsst2 Ki. Put shortly: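 Membranes from CHO-K1 cells stably expressing human SSTR2, in 10 mM Tris-HCl, incubated 90 min at 25 °C with 0.05 nM [125I]MK-678. Bound ligand collected by filtration on PEI-soaked GF/C filters; nonspecific binding defined with 1000 nM MK-678.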

Another assay concerns the target T7, hsst1 (Homo sapiens, UniProt P30872).
T7 construct: expressed in transfected cells
As to the kind of experiment: Somatostatin receptor radioligand binding assay, hsst1. Put shortly:
as §2

T7 sequence (P30872 whole entry): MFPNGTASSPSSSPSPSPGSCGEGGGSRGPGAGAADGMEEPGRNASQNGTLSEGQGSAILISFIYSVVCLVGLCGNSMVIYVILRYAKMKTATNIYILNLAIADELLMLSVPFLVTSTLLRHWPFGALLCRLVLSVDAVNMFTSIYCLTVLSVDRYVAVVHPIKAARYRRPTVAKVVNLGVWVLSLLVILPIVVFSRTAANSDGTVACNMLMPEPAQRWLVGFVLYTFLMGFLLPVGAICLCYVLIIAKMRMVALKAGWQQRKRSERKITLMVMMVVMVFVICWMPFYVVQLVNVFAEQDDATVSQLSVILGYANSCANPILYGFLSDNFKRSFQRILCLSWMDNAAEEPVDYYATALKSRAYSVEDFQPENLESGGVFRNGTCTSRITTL
T4 sequence (P30874 whole entry): as the sequence (P30874 whole entry) above
T4 sequence (P14416 whole entry): as the sequence (P14416 whole entry) above
T3 sequence (P30874 whole entry): as the sequence (P30874 whole entry) above

The term Ki denotes the equilibrium dissociation constant of an inhibitor or competing ligand from its target. The term IC50 denotes the concentration that gives 50% inhibition. As to `CCCN1C[C@H](CSCC(=O)NCCCC[C@@H](NC(=O)CSC[C@@H]2C[C@@H]3c4cccc5[nH]cc(c45)C[C@H]3N(CCC)C2)C(=O)N[C@H]2CSSC[C@@H](C(=O)N[C@H](C(N)=O)[C@@H](C)O)NC(=O)[C@H](CC)NC(=O)[C@H](CCCCN)NC(=O)[C@@H](Cc3c[nH]c4ccccc34)NC(=O)[C@H](Cc3ccc(O)cc3)NC2=O)C[C@@H]2c3cccc4[nH]cc(c34)C[C@H]21` [Example 1, Dop2-DLys(Dop2)-cyclo[Cys-Tyr-DTrp-Lys-Abu-Cys]-Thr-NH2], the Ki was found to be 15.8 nM on hDA2; 160 nM on hsst3; 509 nM at hUTII; 0.03 nM at hsst2; 843 nM on hsst1. Moreover, the IC50 on D2 came to 0.02 nM; at sst2, 0.04 nM; on sst2-D2, 0.02 nM.
